These results are taken from PubChem BioAssay AID256 (DTP/NCI, 2004).

For this assay, the system named is CD2F1 mice, L1210 leukemia ip, survival T/C. Description: NCI In Vivo Anticancer Drug Screen. Data for tumor model L1210 Leukemia (intraperitoneal) in CD2F1 (CDF1) mice. Conditions: higher = longer survival. Summed up:
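Mice carrying a transplanted tumor received test compound or vehicle alone. The value is the measurement in the treated group divided by that in the vehicle-treated control group.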

[1] abbreviates: endpoint: mean survival time, dose: 100.0 mg/kg/injection, schedule: Q01DX009 (ip), vehicle: saline with Tween-80.
The mark [2] stands for this setting: endpoint: mean survival time, dose: 200.0 mg/kg/injection, schedule: Q01DX009 (ip), vehicle: saline with Tween-80.
Setting [3] is: endpoint: mean survival time, dose: 200.0 mg/kg/injection, schedule: Q04DX002 (ip), vehicle: saline with Tween-80.
[4] abbreviates: endpoint: mean survival time, dose: 100.0 mg/kg/injection, schedule: Q04DX003 (ip), vehicle: saline with Tween-80.
Where [5] appears, read: endpoint: mean survival time, dose: 200.0 mg/kg/injection, schedule: Q04DX003 (ip), vehicle: saline with Tween-80.
[6] abbreviates: endpoint: mean survival time, dose: 400.0 mg/kg/injection, schedule: Q04DX003 (ip), vehicle: saline with Tween-80.
Where [7] appears, read: endpoint: mean survival time, dose: 25.0 mg/kg/injection, schedule: Q01DX009 (ip), vehicle: saline with Tween-80.
Where [8] appears, read: endpoint: mean survival time, dose: 50.0 mg/kg/injection, schedule: Q01DX009 (ip), vehicle: saline with Tween-80.
[9] abbreviates: endpoint: mean survival time, dose: 50.0 mg/kg/injection, schedule: Q01DX009 (ip), vehicle: Klucel (hydroxypropylcellulose) (HPC).
Where [10] appears, read: endpoint: mean survival time, dose: 100.0 mg/kg/injection, schedule: Q01DX009 (ip), vehicle: Klucel (hydroxypropylcellulose) (HPC).
The mark [11] stands for this setting: endpoint: mean survival time, dose: 200.0 mg/kg/injection, schedule: Q01DX009 (ip), vehicle: Klucel (hydroxypropylcellulose) (HPC).

“And” between values parts separate entries of the source, which are not always exact repeats. Equal entries are not always repeated. Inconclusive results and toxic doses are left out.

As to `Cc1cc2ncn(CO)c2cc1C`, the T/C by setting is: under setting [1], 105 % of control; under setting [2], 100 % of control; (endpoint: mean survival time, dose: 400.0 mg/kg/injection, schedule: Q01DX009 (ip), vehicle: saline with Tween-80) 111 % of control.
For `CC(C)=CCC/C(C)=C\CC1=C(O)c2ccccc2C(=O)C1=O`, the T/C is 96 % of control (endpoint: mean survival time, dose: 50.0 mg/kg/injection, schedule: Q01DX009 (ip), vehicle: other); 94 % of control (endpoint: mean survival time, dose: 100.0 mg/kg/injection, schedule: Q01DX009 (ip), vehicle: other); 95 % of control (endpoint: mean survival time, dose: 200.0 mg/kg/injection, schedule: Q01DX009 (ip), vehicle: other).
Consider `O=c1c2ccccc2nnn1OCc1ccccc1`, for which the T/C is, setting by setting: (endpoint: mean survival time, dose: 12.5 mg/kg/injection, schedule: Q01DX001 (ip), vehicle: distilled water + Tween-80) 104 % of control; (endpoint: mean survival time, dose: 25.0 mg/kg/injection, schedule: Q01DX001 (ip), vehicle: distilled water + Tween-80) 90 % of control; (endpoint: mean survival time, dose: 50.0 mg/kg/injection, schedule: Q01DX001 (ip), vehicle: distilled water + Tween-80) 92 % of control; (endpoint: mean survival time, dose: 100.0 mg/kg/injection, schedule: Q01DX001 (ip), vehicle: distilled water + Tween-80) 90 % of control; (endpoint: mean survival time, dose: 200.0 mg/kg/injection, schedule: Q01DX001 (ip), vehicle: distilled water + Tween-80) 88 % of control.
For `O=C(Cn1[nH]c(=O)ccc1=O)c1ccccc1`, the T/C (endpoint: mean survival time, dose: 12.5 mg/kg/injection, schedule: Q04DX002 (ip), vehicle: saline with Tween-80) is 95 % of control; the T/C (endpoint: mean survival time, dose: 25.0 mg/kg/injection, schedule: Q04DX002 (ip), vehicle: saline with Tween-80) was 100 % of control; the T/C (endpoint: mean survival time, dose: 50.0 mg/kg/injection, schedule: Q04DX002 (ip), vehicle: saline with Tween-80) is 91 % of control and 92 % of control; the T/C under setting [3] was 94 % of control.
Turning to `Cc1c(C)c2ccccc2[nH]c1=O`, the T/C under setting [4] was 99 % of control, the T/C under setting [5] is 96 % of control and the T/C under setting [6] is 100 % of control.
As to `Cc1ccc(C2=CSC3=NCCN23)cc1Cl`, the T/C is, setting by setting: (endpoint: median survival time, dose: 6.25 mg/kg/injection, schedule: Q01DX005 (ip), vehicle: saline) 116 % of control; (endpoint: median survival time, dose: 12.5 mg/kg/injection, schedule: Q01DX005 (ip), vehicle: saline) 108 % of control; (endpoint: median survival time, dose: 25.0 mg/kg/injection, schedule: Q01DX005 (ip), vehicle: saline) 109 % of control; (endpoint: median survival time, dose: 50.0 mg/kg/injection, schedule: Q01DX005 (ip), vehicle: saline) 100 % of control.
In the case of `CN(C)C(=S)Nc1ccc(Cl)cc1`, the T/C was 98 % of control under setting [4], 98 % of control under setting [5] and 100 % of control under setting [6].
For `Cc1ncc2cnccn12`, the T/C (endpoint: mean survival time, dose: 50.0 mg/kg/injection, schedule: Q01DX009 (ip), vehicle: saline sonified) was 101 % of control; the T/C (endpoint: mean survival time, dose: 100.0 mg/kg/injection, schedule: Q01DX009 (ip), vehicle: saline sonified) is 104 % of control; the T/C (endpoint: mean survival time, dose: 100.0 mg/kg/injection, schedule: Q04DX003 (ip), vehicle: saline) was 97 % of control; the T/C (endpoint: mean survival time, dose: 200.0 mg/kg/injection, schedule: Q04DX003 (ip), vehicle: saline) was 101 % of control.
On to `COC(=O)C[As+](c1ccccc1)(c1ccccc1)c1ccccc1`, for which the T/C (endpoint: mean survival time, dose: 75.0 mg/kg/injection, schedule: Q01DX001 (ip), vehicle: other) is 97 % of control; the T/C (endpoint: mean survival time, dose: 75.0 mg/kg/injection, schedule: Q01DX001 (ip), vehicle: saline) was 103 % of control; the T/C (endpoint: mean survival time, dose: 150.0 mg/kg/injection, schedule: Q01DX001 (ip), vehicle: other) is 91 % of control; the T/C (endpoint: mean survival time, dose: 150.0 mg/kg/injection, schedule: Q01DX001 (ip), vehicle: saline) was 94 % of control.
On to `Oc1c(Br)cc(Br)cc1/C=N/c1nc(-c2ccccc2)cs1.Oc1c(Br)cc(Br)cc1/C=N/c1nc(-c2ccccc2)cs1.[Co]`, for which the T/C reads like this: (endpoint: mean survival time, dose: 25.0 mg/kg/injection, schedule: Q01DX001 (ip), vehicle: saline) 100 % of control; (endpoint: mean survival time, dose: 50.0 mg/kg/injection, schedule: Q01DX001 (ip), vehicle: saline) 100 % of control; (endpoint: mean survival time, dose: 100.0 mg/kg/injection, schedule: Q01DX001 (ip), vehicle: saline) 87 % of control.
For the molecule `CN(C)[C@@H]1C(=O)C(C(=O)NCN2CCN(C(=N)N=C(N)N)CC2)=C(O)[C@@]2(O)C(=O)C3=C(O)c4c(O)cccc4[C@@](C)(O)[C@H]3C[C@@H]12`, the T/C was 111 % of control (endpoint: mean survival time, dose: 1.25 mg/kg/injection, schedule: Q01DX001 (ip), vehicle: saline); 107 % of control (endpoint: median survival time, dose: 0.31 mg/kg/injection, schedule: Q01DX009 (ip), vehicle: saline); 110 % of control (endpoint: median survival time, dose: 0.62 mg/kg/injection, schedule: Q01DX009 (ip), vehicle: saline); 103 % of control (endpoint: median survival time, dose: 1.25 mg/kg/injection, schedule: Q01DX009 (ip), vehicle: saline); 109 % of control (endpoint: median survival time, dose: 2.0 mg/kg/injection, schedule: Q01DX009 (ip), vehicle: saline); 87 % of control (endpoint: median survival time, dose: 5.0 mg/kg/injection, schedule: Q01DX009 (ip), vehicle: saline).
As for `CCOc1cc(/C=N/NC(=O)C[n+]2ccccc2)ccc1O`, the T/C reads like this: under setting [7], 99 % of control; under setting [8], 103 % of control; under setting [1], 99 % of control.
With `S=C(Nc1ccc(Cl)c(Cl)c1)N1c2ccccc2-n2cccc2C1c1cccnc1` (configuration not stated), the T/C runs as follows: (endpoint: mean survival time, dose: 12.5 mg/kg/injection, schedule: Q01DX009 (ip), vehicle: Klucel (hydroxypropylcellulose) (HPC)) 96 % of control and 104 % of control; (endpoint: mean survival time, dose: 25.0 mg/kg/injection, schedule: Q01DX009 (ip), vehicle: Klucel (hydroxypropylcellulose) (HPC)) 98 % of control and 105 % of control; under setting [9], 104 % of control and 109 % of control; under setting [10], 113 % of control and 114 % of control and 107 % of control; under setting [11], 115 % of control and 120 % of control and 123 % of control; (endpoint: mean survival time, dose: 400.0 mg/kg/injection, schedule: Q01DX009 (ip), vehicle: Klucel (hydroxypropylcellulose) (HPC)) 112 % of control.
Turning to `C(=N/c1ccccn1)/c1ccc(/C=N\c2ccccn2)cc1`, the T/C was 94 % of control (endpoint: mean survival time, dose: 100.0 mg/kg/injection, schedule: Q04DX003 (ip), vehicle: Klucel (hydroxypropylcellulose) (HPC)); 94 % of control (endpoint: mean survival time, dose: 200.0 mg/kg/injection, schedule: Q04DX003 (ip), vehicle: Klucel (hydroxypropylcellulose) (HPC)); 102 % of control (endpoint: mean survival time, dose: 400.0 mg/kg/injection, schedule: Q04DX003 (ip), vehicle: Klucel (hydroxypropylcellulose) (HPC)).
With `Cc1ccc(Cl)cc1NC(=O)Nc1nccs1`, the T/C is 91 % of control under setting [9], 91 % of control under setting [10] and 102 % of control under setting [11].
Consider `c1ccc(-c2nncnn2)cc1`, for which the T/C under setting [4] is 92 % of control.
On to `COC(=O)c1cccn1C(=O)c1ccccc1N`, for which the T/C reads like this: (endpoint: mean survival time, dose: 100.0 mg/kg/injection, schedule: Q04DX002 (ip), vehicle: saline with Tween-80) 96 % of control; under setting [3], 93 % of control; (endpoint: mean survival time, dose: 400.0 mg/kg/injection, schedule: Q04DX002 (ip), vehicle: saline with Tween-80) 100 % of control.
For the molecule `O=C1NC(=O)C(Cc2ccccc2)(Cc2ccccc2)C(=O)N1Cc1ccccc1`, the T/C by setting is: under setting [8], 100 % of control; under setting [1], 91 % of control; under setting [2], 100 % of control.
As for `[B-][N+](C)(C)Cc1ccccc1`, the T/C under setting [7] was 94 % of control; the T/C under setting [8] was 88 % of control; the T/C (endpoint: mean survival time, dose: 100.0 mg/kg/injection, schedule: Q01DX001 (ip), vehicle: saline with Tween-80) is 101 % of control.
For `CCCCCCCCOC(=O)c1cc([N+](=O)[O-])c(Sc2ncnc3nc[nH]c23)c([N+](=O)[O-])c1`, the T/C is, setting by setting: (endpoint: mean survival time, dose: 11.0 mg/kg/injection, schedule: Q01DX005 (ip), vehicle: other) 112 % of control; (endpoint: mean survival time, dose: 12.5 mg/kg/injection, schedule: Q01DX005 (ip), vehicle: other) 115 % of control; (endpoint: mean survival time, dose: 25.0 mg/kg/injection, schedule: Q01DX005 (ip), vehicle: other) 172 % of control; (endpoint: mean survival time, dose: 50.0 mg/kg/injection, schedule: Q01DX005 (ip), vehicle: other) 118 % of control; (endpoint: mean survival time, dose: 100.0 mg/kg/injection, schedule: Q01DX005 (ip), vehicle: other) 107 % of control.
